Among the data in a melting point compilation (Tetko et al.; mined from patent text by program, amines drawn as free bases though some values may be those of a salt) are melting point values, retold here.

What is called melting point is the temperature, or range, at which the solid turns liquid. For `COC(=O)C1c2ccccc2Oc2ccccc21`, the melting point was 82 °C.

Compound `COc1ccc(OC)c(C(=O)c2cc3cc(OC)ccc3o2)c1` yielded a melting point of 119 to 121 °C.

The compound `N#Cc1cc(Cn2cncn2)ccc1-c1ccc(O)c(Cl)c1` yielded a melting point of 195 to 197 °C.

`O=C1CCc2c(Cl)cc(F)cc21`: the melting point is 94 to 96 °C. The figure for `OC1c2cc(OCc3ccc4cc(F)ccc4n3)ccc2OCC1Cc1cncnc1` (stereo not given) is 188 to 191 °C; for `CCOC(=O)C1=C(C)NC(C)=C([N+](=O)[O-])C1c1cccc(Cl)c1` (stereo not given) it is 168 °C; for `O=c1oc(-c2ccc(F)cc2)cc2ccccc12` it is 134 to 135 °C. The compound `CC1(Cc2ccc(Br)cc2)C(=O)N(c2cc(Cl)cc(Cl)c2)c2ccccc21` (stereo not given) registered a melting point of 129 to 130 °C.

`CCOC(=O)c1cc(C(=O)CBr)[nH]n1` had a melting point of 174 to 176 °C.

Consider `CC(=O)Nc1ccc(I)cc1C`, for which the melting point lay in the range of 182 to 183 °C. Compound `Cc1nc(-c2ccc([N+](=O)[O-])cc2)c(-c2ccc([N+](=O)[O-])cc2)[nH]1` came in with a melting point of 230 to 232 °C. `O=C(O)CC(NS(=O)(=O)c1ccc2ccccc2c1)c1ccc2c(c1)OCO2` (stereo not given) returned a melting point of 173 to 175 °C.

On to `CCS(=O)(=O)N[C@H](C(=O)NCCc1cc(Br)c(OCc2ccccc2)c(OC)c1)C(C)C`, for which the melting point is 128 to 130 °C. Consider `CCCCNC(=O)Nc1ccc(N2CCCC2)cc1C(=O)NCC1CCN(C(c2ccccc2)c2ccccc2)CC1`, for which the melting point was 200 to 202 °C.

Turning to `Cn1nc(-c2ccc([N+](=O)[O-])cc2)c2ccccc2c1=O`, the melting point was 200 to 202 °C. As for `O=C(O)CC1(CS)CC1`, the melting point lay within 42 to 45 °C. Compound `CCNC(=O)Nc1cc(C(=O)OC)c(O)c2ncc(Cc3ccc(F)cc3)cc12` registered a melting point of 280 to 282 °C. As for `Cc1cnc(NC(=O)c2cc(Oc3ccc(C(=O)N4CCC4)cc3F)cc(O[C@@H](C)CO)c2)cn1`, the melting point is 172 °C. The figure for `O=C(Nc1cccc(F)c1F)c1ccc(-n2nc(C(F)(F)F)cc2C2CC2)nc1` is 155 to 160 °C; for `CC(CCC1(C(N)=O)c2ccccc2-c2ccccc21)N(C)C` (stereo not given) it is 104 to 106 °C. `CC(C)Cn1cnc2c(Br)c(NC3=NCCN3)ccc21` showed a melting point of 226 to 227 °C. The compound `CCOC(=O)c1cc(-c2ccc(Br)cc2)n(-c2ccc(S(C)(=O)=O)cc2)n1` showed a melting point of 176 °C. Consider `Nc1sc(-c2ccco2)c(CN(C2CCCCC2)C2CCCCC2)c1C(=O)c1ccc(Cl)cc1`, for which the melting point fell in the range of 158 to 160 °C. In turn, `O=C(NC(Cc1ccccc1F)C(=O)N1CCSC1)c1cc2cc(Cl)ccc2[nH]1` (stereo not given) yielded a melting point of 216 to 217 °C. For `O=C(O)c1ccc(-c2nc(NCc3ccc4c(c3)OCO4)c3cc([N+](=O)[O-])sc3n2)cc1`, the melting point was determined as 172 °C. For the compound `COc1ccc2c(Nc3ccc4cn[nH]c4c3)c(C#N)cnc2c1`, the melting point was above 250 °C.

`O=C(Nc1cccc(Cl)c1)N1CCN(C(=O)c2ccc(Nc3ccnc4cc(C(F)(F)F)ccc34)cc2)CC1` came in with a melting point of 266 to 268 °C. Next, `CCCOc1cc(OC)c2c(c1)C(=O)c1cccc(OC(C)C)c1-2`: 114 to 116 °C. Take `NC(=O)c1cc(O)c(O)c([N+](=O)[O-])c1`: the melting point fell in the range of 235 to 236 °C. The compound `O=C(O)[C@@H](Cc1ccccc1)Oc1c(Br)cc(-c2c3ccccc3c(C(F)(F)F)c3sc4ccccc4c23)cc1Br` gave a melting point of 109 to 143 °C.

For the compound `COc1ccc2oc(Cc3cccnc3)c(CC#N)c2c1`, the melting point is 123 °C. Regarding `CCCC(=O)NCC1Cc2ccc(-c3ccc(=O)[nH]n3)cc2C1` (stereo not given), the melting point fell in the range of 204 to 205 °C. Compound `Cc1c(C)c2c(c(C)c1OCc1ccccc1)CC[C@@](C)(CC(=O)CC(=O)OCc1ccccc1)O2` gave a melting point of 72.5 to 74 °C. `CC(C)ON=C(C(=O)O)c1ccccc1` yielded a melting point of 59.5 °C. In turn, `Cc1cc(Cl)ccc1N1C(=O)c2ccc(Cl)cc2C1=O` returned a melting point of 193 to 195 °C.
